Where “and” joins values, the source holds several entries; their conditions need not be identical. Equal entries are not always repeated.
Experiments:
[1] = tested on: HEK-293; experiment: MTT cytotoxicity assay, reference line; assay type: cell-based; details: Homo sapiens, HEK293, 24 h incubation, non-tumor reference line
Method: The in vitro studies were performed on the reference line HEK-293 (human embryonic kidney cells, ATCC® CRL-1573™) and […] human cancer cell lines: 769-P (adenocarcinoma, renal cells, ATCC® CRL-1933™) and HepG2 (carcinoma, hepatocellular, ATCC® HB-8065™), H1563 (adenocarcinoma, non-smallcell lung cancer, ATCC® CRL-5875™), LN-229 (glioblastoma, ATCC® CRL-2611™). Cells from the 769-P and H1563 cell lines were cultured in RPMI-1640 growth medium (PAN Biotech GmbH, Aidenbach, Bayern, Germany), cells from the HEK-293 and HepG2 cell lines were cultured in EMEM growth medium (PAN Biotech GmbH, Aidenbach, Bayern, Germany), and cells from the LN-229 cell line were cultured in DMEM growth medium (PAN Biotech GmbH, Aidenbach, Bayern, Germany) in sterile 75 cm^2 culture phalcones. Fetal bovine serum (PAN Biotech GmbH, Aidenbach, Bayern, Germany) at 10% of growth medium and antibiotics (Sigma-Aldrich, Poland) (2.5 µg/mL amphotericin B, 100 µg/mL penicillin, and 100 µg/mL streptomycin) were added to all media. Cells were cultured at 37 °C in an incubator with 5% CO2 flow until a cell layer was formed. Following this, the medium was removed, and the cells were washed with 0.25% trypsin solution with 2.21 mM EDTA (Corning Incorporated, Corning, NY, USA) in order to completely remove fetal bovine serum containing trypsin inhibitor. Finally, 6 mL of complete growth medium was added, and the cells were aspirated by gentle pipetting.
The determination of inhibitory concentration (IC50) in the HEK-293, 769-P, HepG2, H1563, and LN-229 cell cultures for selected hydrazide–hydrazones was performed using the MTT assay procedure. This test was performed according to the MTT Assay ECVAM n°17 protocol manual prepared by the European Centre for the Validation of Alternative Methods (ECVAM), an entity that aims to reduce in vivo testing in favor of in vitro and in silico methods. To 96-well sterile plates, 100 μL of cell suspensions, prepared in the appropriate medium at a concentration of 3 × 10^5 cells/mL, was added using a multichannel pipette. To achieve cell adhesion to the bottom of the plates, cells were incubated for 24 h at 37 °C with 5% CO2 flow and 90% humidity. […] After this time, all medium was removed, 100 μL of DMSO (Corning Incorporated, Corning, NY, USA) was added to each well, and absorbance measurements were performed at 550 nm using a Power Weave xs spectrophotometric microplate reader (BioTek, Winooski, VT, USA). The decrease in absorbance is equivalent to the decrease in MTT formazan production, which is due to the decrease in mitochondrial dehydrogenase activity and indicates a cytotoxic effect from the tested substances. Cell viability is expressed as a percentage as the ratio of the absorbance of test substance-treated cells to the untreated cells. […]

[2] = in vivo; details: in vivo
Method: Wild-type AB strain zebrafish (Danio rerio) were housed in the Experimental Medicine Centre of Medical University of Lublin (Lublin, Poland), where all the experimental procedures on embryos and larvae were carried out. The animals were kept on a recirculating water supply at 26 ± 1 °C and a 10/14 dark–light cycle, and they were fed with artemia and commercial feed. Danio rerio embryos were obtained from females between 4 and 15 months of age. […] In order to avoid genetic bias in the study, eggs were randomly collected from at least three breeding groups, rinsed, and placed in Petri dishes in the cultured medium, which for Danio rerio is E3 solution. […] In accordance with the legislation of the European Union and Poland, the experiments performed on the earliest life-stages of Danio rerio until 120 h post-fertilization (120 hpf), not defined as protected, are not subject to regulations for animal experimentation.
They address the testing of chemicals using the Fish Embryo Acute Toxicity (FET) test with the species Danio rerio.
Immediately after fertilization, eggs were placed in sterile 24-well plates and exposed for 96 h to at least five concentrations of the test chemical, ranging from 1 to 500 µM and prepared ex tempore on each day of exposure, according to the principle of one egg per well and one concentration per plate. In each plate, 20 wells were filled with the solutions of the tested substance, and 4 wells of the last column were a negative internal control with E3 medium. Each well was filled with 2 mL of solution. Positive control plates were also prepared according to this scheme with 4 mg/L of 3,4-dichloroaniline (Sigma-Aldrich, Poznań, Poland) and a negative control with E3, and a negative solvent control with 1% DMSO, which was used as a solvent for the tested substances. At four time points, microscopic observations were made every 24 h. As indicators of mortality (so-called terminal observations; when at least one of these occurs, embryonic death is declared), the following were recorded: the coagulation of embryos, a lack of somite formation, a lack of detachment of the tail from the yolk sac and a lack of a heartbeat, which was observed from the 48th hour of the study. To confirm the absence of a heartbeat, a microscopic observation was conducted at 80× magnification for one minute. Then, the solutions of the tested chemicals, to maintain their constant composition throughout the test, were replaced with fresh ones, and the plates were incubated for another 24 h in an incubator at 26 ± 1 °C. […] In addition, a quantitative and qualitative summary of the morphological and physiological abnormalities that occurred in the tested Danio rerio embryos and larvae was also made. These included yolk sac edema, pericardial edema, spinal flexure, head deformities, tail deformities, developmental delay defined as a lack of hatching success for 96 hpf larvae, and also bradycardia.
Regression analysis was performed with Excel, and the above-mentioned values were obtained from the linear type of regression analysis. […] The results obtained from the heart rate study of 96 hpf zebrafish larvae were subjected to statistical analysis using one-way analysis of variance (ANOVA) and a post hoc Bonferroni test. The significance level was taken as p < 0.05.

Row | SMILES | IC50 [1] | LC50 at 96 h [2]
1 | O=C(N/N=C/c1ccccc1F)c1ccc(O)cc1O [Compound 24, N-[(2-fluorophenyl)methylidene]-2,4-dihydroxybenzohydrazide] | 0.387 mM | 4.24 mM and 1160 µg/mL
2 | O=C(N/N=C/c1cccc([N+](=O)[O-])c1)c1ccc(O)cc1O [Compound 20, 2,4-dihydroxy-N-[(3-nitrophenyl)methylidene]benzohydrazide] | 13.4 mM | 34.8 mM and 10500 µg/mL
3 | O=C(N/N=C/c1ccccc1Br)c1ccc(O)cc1O [Compound 23, N-[(2-bromophenyl)methylidene]-2,4-dihydroxybenzohydrazide] | 91.8 mM | 85.6 µM and 30.4 µg/mL
4 | O=C(N/N=C/c1ccc([N+](=O)[O-])cc1)c1ccc(O)cc1O [Compound 21, 2,4-dihydroxy-N-[(4-nitrophenyl)methylidene]benzohydrazide] |  | 370 µM and 110 µg/mL
5 | O=C(N/N=C/c1ccccc1Cl)c1ccc(O)cc1O [Compound 22, N-[(2-chlorophenyl)methylidene]-2,4-dihydroxybenzohydrazide] | 0.315 mM | 56.6 µM and 16.4 µg/mL
